“Also recorded” adds a separate entry of the source.
Key:
[1] = target: T1, purified recombinant human Tdp1 (Homo sapiens, UniProt Q9NUW8); assay: Real-time detection of Tdp1 activity (removal of BHQ1 from a 5′-FAM 16-nt oligonucleotide, fluorescence); type: biochemical; conditions: for IC50: 1.5 nM Tdp1, 50 nM oligonucleotide, 25 °C, three independent experiments
T1 construct: made in house
Description: In this work, four natural nucleosides (1-4) and […] aromatic lipophilic derivatives of purine nucleosides (5a-f, 6a-d) were tested for Tdp1 activity. The used test system was based on the enzyme’s ability to remove Black Hole Quencher 1 (BHQ1) from the 3′ end of a 5′ FAM 16-nt oligonucleotide. As a result, an increase in FAM fluorescence was detected and the obtained kinetic curves were used to calculate the IC50 parameter (the concentration of the inhibitor at which the enzyme activity is reduced by half). We have found potent Tdp1 inhibitors with IC50 in the range from 0.3 to 7 μM (Table 1).
Purified human recombinant Tdp1 was prepared as described earlier. Real-time detection of Tdp1 activity was reported in our previous work. The approach consists of a fluorescence intensity measurement of the reaction of quencher removal from the fluorophore-quencher coupled DNA oligonucleotide catalyzed by Tdp1 in the presence of the inhibitor (the control samples contained 1% DMSO). The biosensor was single-stranded oligonucleotide (5′-[FAM] AAC GTC AGGGTC TTC C [BHQ]-3′) containing fluorophore at the 5′ end (5,6-FAM) and a Black Hole Quencher 1 (BHQ) at the 3′ end, and was synthesized in the Laboratory of nucleic acid chemistry at the Institute of Chemical Biology and Fundamental Medicine SB RAS, Novosibirsk, Russia. The reactions were incubated at a constant temperature 25 °C in a POLARstar OPTIMA fluorimeter, BMG LABTECH, GmbH, to measure fluorescence every 55 s (Ex485/Em520 nm) during the linear phase (here, the data are from 0 to 8 min). […] The IC50 values were determined using a six-point concentration response curve in three independent experiments and calculated using MARS Data Analysis 2.0 (BMG LABTECH).

[2] = Cell culture cytotoxicity assay (EZ4U colorimetric test); type: cell-based; conditions: human, HeLa cells
From the text: (§1) Tdp1 inhibitors are intended to be used in therapeutic cocktails to sensitize tumors to the action of anticancer Top1 poisons. […] To assess the toxicity of the compounds, their effect on the survival of the HeLa cell line (human cervical cancer) was studied using the colorimetric test of metabolic activity of cells EZ4U, which reflects the survival of cells in the presence of the studied compounds. The EZ4U assay is based on the ability of living cells to reduce the colorless tetrazolium salt XTT [sodium 3,3′-{1-(phenylamino)-carbonyl-3,4-tetrazolium) -bis(4-methoxy-6-nitro)-benzene sulfonic acid hydrate] to an orange water-soluble formazan product. This method was used to investigate the intrinsic cytotoxicity of promising inhibitors discovered in the course of this work, as well as the toxicity of their combination with Tpc.
(§2) Cytotoxicity of the compounds was examined on human cell lines HeLa using an EZ4U colorimetric test (Biomedica, Vienna, Austria). The HeLa cell line was obtained from the Russian Cell Culture Collection (RCCC) Institute of Cytology RAS, St. Petersburg, Russia. The cells were grown in DMEM/F12 medium (Gibco, Thermo Fisher Scientific, Waltham, MA, USA), with 1x GlutaMAX (Gibco, Thermo Fisher Scientific, Waltham, MA, USA), 50 IU/mL penicillin, 50 μg/mL streptomycin (MP Biomedicals), and in the presence of 10% fetal bovine serum (Biolot, Saint-Petersburg, Russia) in a 5% CO2 atmosphere. Since lipophilic nucleosides are soluble in DMSO, cells were grown in the presence of 1% DMSO in the control wells. After the formation of a 30–50% monolayer, the tested compounds were added to the medium, and the cell culture was monitored for 3 days. The values were normalized to their own control in each case. At least three independent experiments were carried out. The 50% cytotoxic concentration (CC50) was defined as the compound concentration that reduced the cell viability by 50% when compared to the untreated controls. The CC50 value was determined using OriginPro 8.6.0 software (OriginLab, Northampton, MA, USA). The measurements were carried out in three independent experiments.

[3] = tested on: HeLa cells; assay: Effect of compounds on topotecan cytotoxicity (EZ4U test); type: cell-based, human; conditions: compound 10 μM in combination with Tpc
From the text: as §1
As already mentioned, we expected to increase the efficacy and/or reduce the dosage of Tpc with Tdp1 inhibitors. To do this, we studied the effect of nucleoside derivatives on Tpc cytotoxicity. […] We attribute this to the probable presence of protein targets other than Tdp1 in the cell.
as §2

[4] = target: T2, human recombinant PARP1 (Homo sapiens, UniProt P09874); assay: PARP1 activity by inclusion of α-[32P]-NAD+ in poly(ADP-ribose); type: biochemical; conditions: in the presence of 1 mM compound; read-out: Residual activity of PARP1
T2 construct: made in house
T2 sequence (P09874 whole entry): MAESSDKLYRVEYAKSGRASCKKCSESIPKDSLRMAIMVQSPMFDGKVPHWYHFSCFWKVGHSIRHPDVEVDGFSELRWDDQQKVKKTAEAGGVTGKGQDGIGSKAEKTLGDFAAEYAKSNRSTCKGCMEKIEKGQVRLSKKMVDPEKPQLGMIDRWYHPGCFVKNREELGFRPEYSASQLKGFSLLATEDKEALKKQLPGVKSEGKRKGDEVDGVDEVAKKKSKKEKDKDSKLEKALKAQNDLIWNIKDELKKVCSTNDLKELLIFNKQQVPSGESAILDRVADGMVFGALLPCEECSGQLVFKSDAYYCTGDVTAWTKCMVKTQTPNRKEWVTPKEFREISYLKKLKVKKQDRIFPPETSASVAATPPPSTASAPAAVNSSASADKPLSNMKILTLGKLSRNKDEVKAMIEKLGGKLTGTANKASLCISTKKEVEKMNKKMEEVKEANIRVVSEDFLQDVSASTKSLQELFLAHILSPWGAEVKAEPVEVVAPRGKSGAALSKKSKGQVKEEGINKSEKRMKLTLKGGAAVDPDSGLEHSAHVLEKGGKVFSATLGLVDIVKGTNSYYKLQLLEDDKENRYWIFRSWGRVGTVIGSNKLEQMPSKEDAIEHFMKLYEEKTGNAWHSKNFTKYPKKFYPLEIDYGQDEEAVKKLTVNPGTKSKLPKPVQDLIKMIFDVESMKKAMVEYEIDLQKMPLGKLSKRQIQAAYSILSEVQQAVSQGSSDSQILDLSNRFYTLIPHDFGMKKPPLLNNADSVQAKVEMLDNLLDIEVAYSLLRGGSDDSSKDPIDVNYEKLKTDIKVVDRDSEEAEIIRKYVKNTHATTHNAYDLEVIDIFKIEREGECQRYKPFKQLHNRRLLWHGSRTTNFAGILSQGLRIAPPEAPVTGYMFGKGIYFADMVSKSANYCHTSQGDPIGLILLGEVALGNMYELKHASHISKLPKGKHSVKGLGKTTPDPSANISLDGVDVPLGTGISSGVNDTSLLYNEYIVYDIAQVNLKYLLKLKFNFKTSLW
Description: (§3) Since it has previously been shown that nucleoside derivatives can inhibit enzymes of the PARP family, we also checked whether the studied compounds were able to inhibit the enzymes PARP1 and PARP2. […] Thus, when using our compounds, one cannot expect side effects from PARP1/2.
(§4) Purified human recombinant PARP1/2 [65] and [^32P] NAD^+ [27] were prepared as described earlier. The activity of PARP1/2 was evaluated by the rate of incorporation of the radioactive label into the acid-insoluble reaction product—PAR as described previously.

[5] = target: T3, human recombinant PARP2 (Homo sapiens, UniProt Q9UGN5); assay: PARP2 activity by inclusion of α-[32P]-NAD+ in poly(ADP-ribose); type: biochemical; conditions: in the presence of 1 mM compound; read-out: Residual activity of PARP2
T3 construct: made in house
T3 sequence (Q9UGN5 whole entry): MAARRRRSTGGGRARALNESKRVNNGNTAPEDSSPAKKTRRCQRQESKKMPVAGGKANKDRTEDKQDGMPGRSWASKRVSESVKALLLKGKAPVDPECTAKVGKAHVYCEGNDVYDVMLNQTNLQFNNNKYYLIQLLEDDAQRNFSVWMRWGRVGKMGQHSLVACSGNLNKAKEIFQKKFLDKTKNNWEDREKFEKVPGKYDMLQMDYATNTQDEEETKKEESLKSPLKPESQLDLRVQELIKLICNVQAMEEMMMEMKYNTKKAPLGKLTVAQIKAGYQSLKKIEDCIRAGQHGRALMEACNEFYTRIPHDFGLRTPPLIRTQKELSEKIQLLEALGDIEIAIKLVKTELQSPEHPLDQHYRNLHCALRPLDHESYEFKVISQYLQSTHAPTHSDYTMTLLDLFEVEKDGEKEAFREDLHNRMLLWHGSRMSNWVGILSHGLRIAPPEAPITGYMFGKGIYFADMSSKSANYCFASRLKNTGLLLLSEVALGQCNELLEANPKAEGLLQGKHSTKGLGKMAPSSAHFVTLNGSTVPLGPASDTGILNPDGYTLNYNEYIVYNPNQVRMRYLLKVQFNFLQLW
Description: as §3, §4

[6] = tested on: HeLa cells; assay: Alkaline Comet assay, accumulation of DNA damage; type: cell-based; conditions: for DNA in tail: Topotecan 10 μM alone (0 μM compound), 1 h
From the text: We studied the effect of Tdp1 inhibitors 5f and 6d on the accumulation of DNA damage by single-cell gel electrophoresis (Comet assay). […] This method has proven to be a simple, fast, and a quite sensitive way to detect DNA damage at the level of a single cell, allowing one to analyze almost any eukaryotic cell culture. Several analysis options allow one to visualize various types of DNA damage: single- and double-stranded breaks and alkaline-labile sites. This allows this method to be widely used in fundamental studies of DNA damage and repair and in testing the genotoxicity of new chemical and pharmaceutical drugs in vitro and in vivo [51, 52]. To study potential drugs, the alkaline version of the method (pH > 13) proposed by Singh and co-authors is widely used. This method allows the detection of all types of DNA damage with high sensitivity. In cells with a large amount of DNA damage, the structural organization and integrity of DNA are disrupted, which leads to its relaxation and/or fragmentation. As a result, cellular DNA in an electric field gives the observed objects the appearance of a “comet”.
Before studying the effect of Tdp1 inhibitors on the accumulation of DNA damage, it was necessary to find out how long the generation of DNA damage by Tpc and their repair take place in HeLa cells. To do this, cell culture was treated with Tpc at 1, 10, and 100 μM concentrations for 30 min, 1, 2, and 3 h and the level of damage to individual cells was monitored by Comet assay. It was shown that Tpc caused the greatest amount of damage after 30 minutes’ treatment. After this time, the repair systems began to correct these lesions and as a result, after 3 h most of them have been eliminated (Figure S9). […] The level of DNA damage at this point was enough to be detected, the data were reproducible, and can be evaluated by the Comet assay. The effect could be enhanced by the tested compounds without leading to cell death. It was important for us to see this enhancement in the presence of our compounds.
HeLa cell culture was grown in a 24-well plate to a concentration of 0.05 million/mL, then treated with the tested compounds and incubated for 1 h. To obtain a cell suspension, the cells were treated with trypsin (30 µL in each well for 5 min at 37 °C), and then 200 µL of PBS + 10% FBS were added to each well.
The resulting cell suspension (50 µL) was mixed with 250 µL of a 1% solution of molten low melting agarose (CertifiedTM LMAgarose; BIO-RAD), 250 µL of this mixture was transferred to the slides pre-coated with a 1% normal melting agarose (Agarose; Helicon), and left for several minutes at 4 °C to solidify. The resulting slides were incubated in a lysing solution (2.5 M NaCl, 100 mM EDTA, 10 mM Tris base, 1% Triton, 5% DMSO, pH 10.0) for an hour at 4 °C. Then the slides were immersed in an electrophoretic buffer (300 mM NaOH, 1 mM EDTA, pH > 13) for 45 min at 4 °C. Electrophoresis was performed at 20 V, 450 mA for 10 min while cooling on ice. After that, the slides were immersed 2 times for 5 min in 0.4 M Tris-HCl pH 7.5 solution for neutralization, washed twice with cold water, and stained with SYBR Green I (excitation maximum at 497 nm, emission maximum at 520 nm; Thermo Fisher Scientific KK).
The images were obtained using a CELENA © S digital microscope (Logos Biosystems, Inc., Annandale, VA, USA) and analyzed with Comet analysis software (Trevigen, Inc., Gaithersburg, MD, USA. In all experiments, 2 slides were evaluated for each sample by counting at least 200 cells on the glass. As a parameter for measuring the level of DNA damage, the median value of the percentage of DNA in the tail was chosen (% Tail DNA = 100 × the intensity of DNA fluorescence in the tail of the comet/the intensity of fluorescence of the total DNA of the comet).

T1 sequence (Q9NUW8 whole entry): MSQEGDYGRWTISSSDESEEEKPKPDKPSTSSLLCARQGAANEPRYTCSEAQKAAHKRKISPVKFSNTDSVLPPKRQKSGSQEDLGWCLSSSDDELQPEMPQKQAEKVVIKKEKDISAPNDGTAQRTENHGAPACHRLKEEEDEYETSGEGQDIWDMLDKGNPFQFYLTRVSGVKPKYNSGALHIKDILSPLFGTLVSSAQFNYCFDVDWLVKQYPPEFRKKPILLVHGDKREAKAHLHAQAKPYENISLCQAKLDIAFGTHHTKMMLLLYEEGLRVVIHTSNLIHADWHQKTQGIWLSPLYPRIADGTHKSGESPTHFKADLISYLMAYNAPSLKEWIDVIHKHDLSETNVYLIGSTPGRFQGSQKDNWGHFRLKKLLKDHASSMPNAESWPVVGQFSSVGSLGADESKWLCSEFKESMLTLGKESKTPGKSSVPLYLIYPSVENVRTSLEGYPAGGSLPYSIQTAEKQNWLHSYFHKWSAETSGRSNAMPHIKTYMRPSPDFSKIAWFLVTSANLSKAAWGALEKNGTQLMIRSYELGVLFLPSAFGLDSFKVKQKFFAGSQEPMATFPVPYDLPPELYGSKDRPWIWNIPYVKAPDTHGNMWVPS

| SMILES | IC50 [1] | CC50 at 3 days [2] | Enhancement of Tpc Cytotoxicity by 10 μM Compounds [3] | remaining activity at 1000 µM [4] | remaining activity at 1000 µM [5] | DNA in tail ([6]; series of compound 5f) | DNA in tail ([6]; series of compound 6d) | Time after which most DNA lesions have been eliminated ([6]; Tpc at 1, 10 and 100 μM) | Treatment time with the greatest amount of DNA damage ([6]; Tpc at 1, 10 and 100 μM for 30 min, 1, 2 and 3 h) | Tdp1 inhibition, in words [1] |
| --- | --- | --- | --- | --- | --- | --- | --- | --- | --- | --- |
| O=C(OC[C@H]1O[C@@H](n2cnc3c(O)ncnc32)[C@H](OC(=O)c2ccccc2)[C@@H]1OC(=O)c1ccccc1)c1ccccc1 [6a, 2′,3′,5′-Tri-O-benzoylinosine] | 7 ± 1 µM | 58 ± 5 µM | 1.8 Times | 87 ± 10% | 96 ± 30% |  |  |  |  |  |
| CC[C@@]1(O)C(=O)OCc2c1cc1n(c2=O)Cc2cc3c(CN(C)C)c(O)ccc3nc2-1 [Tpc, topotecan] |  |  |  |  |  | 35±5% | 39±1% | 3 h | 30 min |  |
| Nc1ncnc2c1ncn2[C@H]1C[C@H](O)[C@@H](CO)O1 [compound 4, reference compound] | > 50 µM |  |  | 84 ± 12% | 79 ± 15% |  |  |  |  |  |
| O=C(OC[C@H]1O[C@@H](n2cnc3c(Cl)ncnc32)[C@H](OC(=O)c2ccccc2)[C@@H]1OC(=O)c1ccccc1)c1ccccc1 [compound 6b, 6-Chloro-2′,3′,5′-tri-O-benzoyl-β-D-ribofuranosylpurine riboside] | 2 ± 0.6 µM | 56 ± 26 µM | 1.9 Times | 86 ± 8% | 75 ± 16% |  |  |  |  |  |
| Nc1nc2c(ncn2[C@@H]2O[C@H](CO)[C@@H](O)[C@H]2O)c(=O)[nH]1 [compound 1, reference compound] | > 50 µM |  |  | 86 ± 5% | 91 ± 5% |  |  |  |  |  |
| OC[C@H]1O[C@@H](n2cnc3c(NC(c4ccccc4)(c4ccccc4)c4ccccc4)ncnc32)[C@H](O)[C@@H]1O [compound 5b] | > 50 µM | 59.6 ± 0.6 µM | 1.7 Times | 99 ± 8% | 107 ± 9% |  |  |  |  | practically did not lead to a decrease in Tdp1 activity |
| Nc1nc2c(ncn2[C@H]2C[C@H](O)[C@@H](CO)O2)c(=O)[nH]1 [compound 2, reference compound] | > 50 µM |  |  | 102 ± 11% | 87 ± 18% |  |  |  |  |  |
| OC[C@H]1O[C@@H](n2cnc3c(NCc4ccc(-c5ccccc5)cc4)ncnc32)[C@H](O)[C@@H]1O [5a] | > 50 µM | > 100 µM |  | 112 ± 11% | 101 ± 24% |  |  |  |  | practically did not lead to a decrease in Tdp1 activity; also recorded: did not inhibit Tdp1 |
| OC[C@H]1O[C@@H](n2cnc3c(NCc4cc5ccc6cccc7ccc(c4)c5c67)ncnc32)[C@H](O)[C@@H]1O [5d] | > 50 µM | 56 ± 10 µM |  | 88 ± 21% | 100 ± 15% |  |  |  |  | practically did not lead to a decrease in Tdp1 activity; also recorded: did not inhibit Tdp1 |
| Nc1ncnc2c1ncn2[C@@H]1O[C@H](CO)[C@@H](O)[C@H]1O [compound 3, reference compound] | > 50 µM |  |  | 94 ± 9% | 95 ± 9% |  |  |  |  |  |
| OC[C@H]1O[C@@H](n2cnc3c(NCc4c5ccccc5cc5ccccc45)ncnc32)[C@H](O)[C@@H]1O [5c] | 22 ± 3 µM | 58 ± 2 µM | 2.2 Times | 92 ± 14% | 104 ± 16% |  |  |  |  |  |

From article PMC9822400, “The Lipophilic Purine Nucleoside—Tdp1 Inhibitor—Enhances DNA Damage Induced by Topotecan In Vitro and Potentiates the Antitumor Effect of Topotecan In Vivo” (Molecules, 2022)
